Measured values: a melting point compilation (Tetko et al.)
Values belong to the compound of their own block, whether it stands above or below them.

SMILES: COc1ccc(C(N)=NO)c2ccccc12
melting point: 175 to 176 °C

SMILES: O=C(O)C(Br)C(Br)C(=O)O (stereo not drawn)
melting point: 275 °C

SMILES: COCCN(C(=O)CCl)c1c(C)cccc1C
melting point: 46.3 °C

SMILES: CCc1c[nH]c(=O)[nH]c1=O
melting point: 309 °C

SMILES: CCCOC(=O)CCCCC(=O)OCCC
melting point: -15.7 °C

SMILES: Clc1ncccc1-c1ccc(Br)cn1
melting point: 132 °C

SMILES: COC=CC(=O)OC
melting point: 3 to 4 °C

SMILES: O=C(C=Nc1ccccc1)c1ccc(C(=O)C=Nc2ccccc2)cc1
melting point: 155 °C

SMILES: O=Cc1ccc(C=O)c([N+](=O)[O-])c1
melting point: 97 °C

SMILES: OC1CCOc2ccccc21 (stereo not drawn)
melting point: 41 to 45 °C

SMILES: BrCC12CC3CC(CC(C3)C1)C2
melting point: 30 to 32 °C

SMILES: c1ccc2c(P(c3cccc4ccccc34)c3cccc4ccccc34)cccc2c1
melting point: 265 to 268 °C

SMILES: CC(C)(O)C#N
melting point: -19 °C

SMILES: CCCCCCCCCCCC[N+]1=C(C=Cc2cc([N+](=O)[O-])cc([N+](=O)[O-])c2[O-])C(C)(C)c2ccccc21
melting point: 138 °C

SMILES: COc1cc2c(cc1OC)C(c1ccc(C)o1)SC(c1ccc(C)o1)=N2 (stereo not drawn)
melting point: 148 °C

SMILES: c1ccc2sncc2c1
melting point: 38 °C

SMILES: Cc1ccc(C=C2N=C(c3ccccc3)OC2=O)o1
melting point: 159 to 160 °C

SMILES: CC1(C)OC(CO)C(CO)O1 (single isomer, unassigned; (+))
melting point: 47 to 51 °C

SMILES: CCOC(=O)C(C#N)=C1SCCS1
melting point: 106 °C

SMILES: O=S(=O)(Cl)c1cccc2ccccc12
melting point: 68 °C

SMILES: O=C(Nc1ccccc1)Nc1ccnc(Cl)c1
melting point: 167 °C

SMILES: CC1(C)C2CCC1(C)C(NC(=S)Nc1ccccc1)C2NC(=S)Nc1ccccc1 (stereo not drawn)
melting point: 178 °C

SMILES: O=C1C=CC(=Nc2ccc(O)cc2)C=C1
melting point: 160 °C

SMILES: CCOc1ccc(-c2nnc3n2NC(c2ccc(O)c(OC)c2)S3)cc1 (stereo not drawn)
melting point: 133 °C

SMILES: O=Cc1ccc(OCc2ccccc2F)cc1
melting point: 54 to 57 °C

SMILES: CC1(C)CC(=O)C2=C(C1)Nc1ccc3ccccc3c1C2c1ccccc1 (stereo not drawn)
melting point: 314 °C

SMILES: CC12CCC(C(=CC(=O)NC(N)=O)C1=O)C2(C)C (stereo not drawn)
melting point: 206 °C

SMILES: Cc1ccnc(Cl)c1[N+](=O)[O-]
melting point: 53 °C

SMILES: CC1(C)CC(=O)C2=C(C1)Nc1c(ccc3ccccc13)C2c1ccc(Cl)cc1 (stereo not drawn)
melting point: 139 °C

SMILES: S=c1cc(-c2ccccc2)oc(-c2ccccc2)c1
melting point: 170 °C

SMILES: CCOC(=O)C=P(c1ccccc1)(c1ccccc1)c1ccccc1
melting point: 124 to 129 °C

SMILES: COc1ccc(CCCCO)cc1
melting point: 3.5 °C

SMILES: Clc1cnc(Cl)c(Cl)c1
melting point: 49 °C

SMILES: CC(=O)OCCC(C)C
melting point: -78.5 °C

SMILES: Cc1cc(=O)[nH]c2c(/N=N/c3ccc(O)cc3)c(N)nn12
melting point: 285 °C

SMILES: N#Cc1cc(F)ccc1F
melting point: 33 to 35 °C

SMILES: CC(=O)OC1CC[C@H]2[C@@H]3CCC4CC(=O)CC[C@]4(C)[C@H]3CC[C@]12C (stereo partly drawn)
melting point: 146 °C

SMILES: O=Cc1ccc(OCc2ccccc2)c(Cl)c1
melting point: 93 to 94 °C

SMILES: Cc1ccc(S(=O)(=O)Nc2ccc(Cl)cc2)cc1
melting point: 120 °C

SMILES: COC1=C(OC)/C(=C/C=O)OC1=O
melting point: 60 to 62 °C

SMILES: O=[N+]([O-])c1cc([N+](=O)[O-])c(Cl)c(C(F)(F)F)c1
melting point: 63 °C

SMILES: Cc1cc(C)c2c(c1)CC(C)(C)C(=O)OC2=O
melting point: 99 to 100 °C

SMILES: COC(=O)N/C=C/c1ccccc1[N+](=O)[O-]
melting point: 146 to 148 °C

SMILES: O=C(Nc1ccccc1)C1CCCC/C1=C\Cc1ccccc1 (stereo not drawn)
melting point: 99 to 100 °C

SMILES: NC(=S)c1cccc2c1OCCO2
melting point: 106 to 109 °C

SMILES: CN(C)c1ccc(/C=C(\C(N)=O)c2nc3ccccc3s2)cc1
melting point: 210 °C

SMILES: CCCNC(=O)C(C(F)(F)F)C(F)(F)F
melting point: 105 to 107 °C

SMILES: CC1(C)CCCCC1O (stereo not drawn)
melting point: 8 °C

SMILES: N#CCC(=O)c1ccco1
melting point: 81 to 83 °C

SMILES: CCCCc1cccc2ccccc12
melting point: -19.8 °C

SMILES: CCCCOc1ccc(NC(=O)C(C(F)(F)F)C(F)(F)F)cc1
melting point: 172 °C

SMILES: S=C=Nc1ccc(-n2cccn2)cc1
melting point: 97 to 99 °C

SMILES: Nc1cc(F)ccc1C(F)(F)F
melting point: 31 °C

SMILES: Cc1nc2sccn2c1C(=O)NN
melting point: 150 °C

SMILES: COc1cccc(C=C[N+](=O)[O-])c1
melting point: 91 to 93 °C

SMILES: OC(c1ccccc1)c1ccc(C(F)(F)F)cc1 (stereo not drawn)
melting point: 60 °C

SMILES: CC1=NCCS1
melting point: -101 °C

SMILES: COc1ccc(Cl)cc1I
melting point: 48 °C

SMILES: Cc1c2c(c(C)c3c1C(=O)C3)C(=O)C2
melting point: 237 to 238 °C

SMILES: CN(C)c1ccc(N=C=S)cc1
melting point: 69 to 71 °C

SMILES: N=C1NC(=O)C(=NNc2cccc([N+](=O)[O-])c2)S1
melting point: 208 °C

SMILES: O=C(Cl)CCl
melting point: -22 °C

SMILES: O=C(c1ccccc1)c1ccc(-c2ccc(Br)cc2)cc1
melting point: 157 °C

SMILES: N#C/C(=C\c1cccnc1)c1nc2ccccc2[nH]1
melting point: 228 °C

SMILES: O=S(=O)(c1ccccc1)c1ccsc1
melting point: 116 °C

SMILES: CC1=CP(=O)(c2ccccc2)CC1 (stereo not drawn)
melting point: 58 to 62 °C

SMILES: COc1ccc2ccccc2c1C#N
melting point: 94 to 98 °C

SMILES: COc1ccc(C=C2C(=O)NC(=O)NC2=O)cc1OC
melting point: 265 °C

SMILES: FC(F)=C(Cl)Cl
melting point: -116 °C

SMILES: Cc1nc2cc(Cl)ccc2s1
melting point: 69 °C

SMILES: Cc1ccc(/C=C2/C=C(CC(C)C)OC2=O)o1
melting point: 88 °C

SMILES: c1cnc2nccnc2c1
melting point: 143 °C

SMILES: COC1=CC(=O)OC1
melting point: 60 to 65 °C

SMILES: S=c1sc2ccccc2n1CCl
melting point: 126 to 131 °C

SMILES: Cc1c(F)ccc(C(=O)Cl)c1F
melting point: 37 °C

SMILES: C1=COCCC1
melting point: -70 °C

SMILES: O=[N+]([O-])c1ccccc1Sc1ccccc1
melting point: 82 °C

SMILES: CCCCCCCCCCCC=CCCCCC(=O)O
melting point: 29.8 °C

SMILES: Nc1nc(F)nc2c1ncn2C1OC(CO)C(O)C1O (stereo not drawn)
melting point: 260 °C

SMILES: CCC(C)C(N)P(=O)(O)O (stereo not drawn)
melting point: 274 °C

SMILES: OCc1cc(-c2ccco2)[nH]n1
melting point: 159 °C

SMILES: CN1CCNCC1
melting point: -6 °C

SMILES: COc1ccccc1-c1nnc2n1CN(C(C)C)CS2
melting point: 207 °C

SMILES: O=c1c(Cc2c(O)oc3ccccc3c2=O)c(O)oc2ccccc12
melting point: 290 °C

SMILES: CCSC1=NN=C(SCC)NN1
melting point: 123 to 125 °C

SMILES: C=Cc1scnc1C
melting point: -15 °C

Continued, values first:

melting point: 206 to 207 °C
SMILES: O=C(O)c1ccccc1Cn1cncn1

melting point: 150 to 152 °C
SMILES: CCCCOc1cc(C(N)=O)ccc1OC

melting point: 137 to 142 °C
SMILES: O=C(CO)c1ccc(Br)cc1

melting point: 148 to 150 °C
SMILES: COc1ccc2[nH]cc(CC(=O)O)c2c1

melting point: 161 °C
SMILES: NC(=O)c1ccc(F)cc1F

melting point: 147 °C
SMILES: Cc1oncc1C(=O)O

melting point: 52 °C
SMILES: COc1cc(F)ccc1C(C)=O

melting point: 72 to 73 °C
SMILES: CC1=C(C#N)C(c2cccc([N+](=O)[O-])c2)C(C(=O)OCCN(C)C)=C(C)N1 (stereo not drawn)

melting point: 49 °C
SMILES: COC(=O)c1cc2ccccc2cc1C(=O)OC

melting point: 81 °C
SMILES: Cc1cc(C#N)ccc1[N+](=O)[O-]

melting point: 300 °C
SMILES: N#Cc1cc2[nH]c(=O)c(=O)[nH]c2cc1[N+](=O)[O-]

melting point: 95 °C
SMILES: C=CCc1cc(OC)c(O)c(C(=O)NCCO)c1

melting point: 108 to 109 °C
SMILES: COC(=O)c1ccc(N)c(N)c1

melting point: 56 °C
SMILES: COc1ccc(C#N)c(OC)c1OC

melting point: 132 °C
SMILES: CC(=O)c1ccc(O)c([N+](=O)[O-])c1

melting point: 154 to 159 °C
SMILES: CC1(NC(=O)c2ccccc2)COCOC1=O (racemic)

melting point: 67 °C
SMILES: COc1ccc(C#N)cc1OC

melting point: 241 °C
SMILES: O=C1COc2cc(O)ccc21

melting point: 127 to 133 °C
SMILES: Cc1c(N)cccc1O

melting point: 38 °C
SMILES: CC(=O)Oc1cccc(I)c1

melting point: 44 to 52 °C
SMILES: O=C(N=NC(=O)OCc1ccccc1)OCc1ccccc1

melting point: 77 °C
SMILES: CC(=O)Oc1nn(-c2ccc(Br)cc2)cc1Br

melting point: 179 to 180 °C
SMILES: CCOC(=O)C1=NN(c2ccccc2)C(=O)C1=CC1C(=O)N(c2ccccc2)N=C1C(=O)OCC (stereo not drawn)

melting point: 123 °C
SMILES: O=C(NCCCc1ccccc1)c1cc([N+](=O)[O-])cc([N+](=O)[O-])c1

melting point: 228 to 230 °C
SMILES: C/C(=N/NC(N)=S)C(=O)Nc1ccc(Br)cc1

melting point: 159 °C
SMILES: CC(=O)Oc1cc(OC(C)=O)cc(C(=O)O)c1

melting point: -82 °C
SMILES: Cc1ccc(C(C)C)c(C)c1

melting point: 128 to 129 °C
SMILES: COC(=O)c1scc(S(=O)(=O)C(C)C)c1S(=O)(=O)Cl

melting point: 55 to 59 °C
SMILES: CNC(=O)Cc1ccccc1

melting point: 68 to 70 °C
SMILES: CC(=O)Nc1ccccc1OC(F)(F)F

melting point: 104 to 107 °C
SMILES: OCCOc1ccc(OCCO)cc1

melting point: 123 to 124 °C
SMILES: Cc1ccc(C(=O)C(=O)c2ccc(Cl)cc2)cc1

melting point: 83 to 89 °C
SMILES: COc1ccc2c(c1)CC2C(=O)O (stereo not drawn)

melting point: 270 °C
SMILES: COc1cc(C=CC(=O)O)c([N+](=O)[O-])cc1OC

melting point: 32.5 °C
SMILES: CC(=O)NCCSC(C)=O

melting point: 310 °C
SMILES: Oc1cc(O)cc(-c2cc(O)cc(O)c2)c1

melting point: 179 to 182 °C
SMILES: N[C@@H](CCC(=O)N[C@@H](CCC(=O)O)C(=O)O)C(=O)O

melting point: 69 °C
SMILES: COc1cc(C(=O)OCCCl)cc(OC)c1OC

melting point: 104 °C
SMILES: O=C(O)Cc1ccc(F)cc1Cl

melting point: 231 to 234 °C
SMILES: Cc1ccc(S(=O)(=O)NCCCC[C@H](N)C(=O)O)cc1

melting point: 163 °C
SMILES: CCCOC(=O)C1=C(C)NC(=O)NC1c1cccc(OC)c1OC (stereo not drawn)

melting point: 256 °C
SMILES: Cc1cccc(C)c1NC(=O)C(C)N (stereo not drawn)

melting point: 204 to 208 °C
SMILES: O=C(N[C@@H]1CCCC[C@@H]1C(=O)O)c1ccccc1

melting point: 111 °C
SMILES: CS(=O)c1cccc(CC(=O)O)c1 (stereo not drawn)

melting point: 109 to 111 °C
SMILES: CC(=O)OC[C@@H](OC(C)=O)[C@@H](OC(C)=O)[C@H](OC(C)=O)[C@@H](OC(C)=O)C(=O)O

melting point: 95 °C
SMILES: Cc1cccc(NC(=O)c2cnc(C(C)(C)C)cn2)c1

melting point: 229 to 236 °C
SMILES: CC(C)(C)c1cc(C(C)(C)C)c2oc(C(=O)O)cc(=O)c2c1
